US10208081B2, “Bile acid derivatives as FXR/TGR5 agonists and methods of use thereof” (Enanta Pharmaceuticals, Inc., priority 2014, dated 2019)

Biological target: human FXR (NR1H4) (Homo sapiens (Human), UniProt Q96RI1)
Assay: Human FXR (NR1H4) Assay (Gal4 promoter driven luciferase reporter, Indigo Bioscience kit IB00601)
Format: cell-based
Conditions: for Efficacy (%): efficacy normalized to CDCA set as 100%; for EC50: potency ranges
Text: Assays Human FXR (NR1H4) Assay
Determination of a ligand mediated Gal4 promoter driven transactivation quantify ligand binding mediated activation of FXR. FXR Reporter Assay kit purchased from Indigo Bioscience (Catalogue number: IB00601) to determine the potency and efficacy of compound developed by Enanta that can induce FXR activation. The principle application of this reporter assay system is to quantify functional activity of human FXR. The assay utilizes non-human mammalian cells, CHO (Chinese hamster ovary) cells engineered to express human NR1H4 protein (referred to as FXR). Reporter cells also incorporate the cDNA encoding beetle luciferase which catalyzes the substrates and yields photon emission. Luminescence intensity of the reaction is quantified using a plate-reading luminometer, Envision. Reporter Cells include the luciferase reporter gene functionally linked to an FXR responsive promoter. Thus, quantifying changes in luciferase expression in the treated reporter cells provides a sensitive surrogate measure of the changes in FXR activity. […] The assay is according to the manufacturer's instructions. In brief, the assay was performed in white, 96 well plates using final volume of 100 ul containing cells with different doses of compounds. Retrieve Reporter Cells from −80° C. storage. Perform a rapid thaw of the frozen cells by transferring a 10 ml volume of 37° C. cell recovery medium into the tube of frozen cells. Recap the tube of Reporter Cells and immediately place it in a 37° C. water bath for 5-10 minutes. Retrieve the tube of Reporter Cell Suspension from the water bath. Sanitize the outside surface of the tube with a 70% alcohol swab, and then transfer it into the cell culture hood. Dispense 90 μl of cell suspension into each well of the 96-well Assay Plate. Transfer the plate into 37° C. incubator, allowing the cells adherent to the bottom of the well. Dilute compounds in Dilution Plate (DP), and administrate to cells at Assay Plate (AP). DMSO content of the samples was kept at 0.2%. Cells were incubated for additional 22 hours before luciferase activities were measured. Thirty minutes before intending to quantify FXR activity, remove Detection Substrate and Detection Buffer from the refrigerator and place them in a low-light area so that they may equilibrate to room temperature. Remove the plate's lid and discard all media contents by ejecting it into an appropriate waste container. Gently tap the inverted plate onto a clean absorbent paper towel to remove residual droplets. Cells will remain tightly adhered to well bottoms. Add 100 μl of luciferase detection reagent to each well of the assay plate. Allow the assay plate to rest at room temperature for at least 5 minutes following the addition of LDR. Set the instrument (Envision) to perform a single 5 second “plate shake” prior to reading the first assay well. Read time may be 0.5 second (500 mSec) per well.

Chain of human FXR (NR1H4) (Q96RI1 whole entry, the tested form may be a part): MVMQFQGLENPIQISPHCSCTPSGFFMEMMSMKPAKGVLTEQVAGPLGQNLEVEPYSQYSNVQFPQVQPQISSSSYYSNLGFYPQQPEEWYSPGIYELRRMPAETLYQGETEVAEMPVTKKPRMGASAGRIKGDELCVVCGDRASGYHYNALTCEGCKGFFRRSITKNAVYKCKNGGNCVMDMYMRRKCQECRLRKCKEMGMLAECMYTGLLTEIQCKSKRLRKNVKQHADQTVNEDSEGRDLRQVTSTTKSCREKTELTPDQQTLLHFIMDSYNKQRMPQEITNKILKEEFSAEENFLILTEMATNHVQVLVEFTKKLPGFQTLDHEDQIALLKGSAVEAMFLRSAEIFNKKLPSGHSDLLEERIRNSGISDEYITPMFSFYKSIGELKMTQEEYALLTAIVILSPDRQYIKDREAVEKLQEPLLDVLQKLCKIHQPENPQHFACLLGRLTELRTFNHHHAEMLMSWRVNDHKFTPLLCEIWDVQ

Structure (SMILES) | Efficacy (%) | EC50 [nM]
CC[C@H]1[C@@H](O)[C@@H]2[C@H](CC[C@]3(C)[C@@H]([C@H](C)CCNC(=O)NS(=O)(=O)c4cccc5ncccc45)CC[C@@H]23)[C@@]2(C)CC[C@@H](O)C[C@@H]12 [Example 107] | 311 | 100 to 1000
CC[C@H]1[C@@H](O)[C@@H]2[C@H](CC[C@]3(C)[C@@H]([C@H](C)CCNC(=O)N(C)S(=O)(=O)c4ccccc4)CC[C@@H]23)[C@@]2(C)CC[C@@H](O)C[C@@H]12 [Example 56] | 295 | 100 to 1000
CC[C@H]1[C@@H](O)[C@@H]2[C@H](CC[C@]3(C)[C@@H]([C@H](C)CCNC(=O)NS(=O)(=O)c4ccc(C5CCCCC5)cc4)CC[C@@H]23)[C@@]2(C)CC[C@@H](O)C[C@@H]12 [Example 59] | 344 | 100 to 1000
CC[C@H]1[C@@H](O)[C@@H]2[C@H](CC[C@]3(C)[C@@H]([C@H](C)CCNC(=O)NS(=O)(=O)c4ccc(C(=O)OC)cc4)CC[C@@H]23)[C@@]2(C)CC[C@@H](O)C[C@@H]12 [Example 123] | 271 | 100 to 1000
CC[C@H]1[C@@H](O)[C@@H]2[C@H](CC[C@]3(C)[C@@H]([C@H](C)CCNC(=O)NS(=O)(=O)c4ccc(Cl)cc4)CC[C@@H]23)[C@@]2(C)CC[C@@H](O)C[C@@H]12 [Example 25] | 357 | < 100
CC[C@H]1[C@@H](O)[C@@H]2[C@H](CC[C@]3(C)[C@@H]([C@H](C)CCNC(=O)NS(=O)(=O)c4ccc(-c5ccno5)cc4OC)CC[C@@H]23)[C@@]2(C)CC[C@@H](O)C[C@@H]12 [Example 73] | 444 | 100 to 1000
CC[C@H]1[C@@H](O)[C@@H]2[C@H](CC[C@]3(C)[C@@H]([C@H](C)CNS(=O)(=O)CCC(=O)O)CC[C@@H]23)[C@@]2(C)CC[C@@H](O)C[C@@H]12 [Example 140] | 1 | –
CC[C@H]1[C@@H](O)[C@@H]2[C@H](CC[C@]3(C)[C@@H]([C@H](C)CCNC(=O)NS(=O)(=O)C[C@@]45CCC(CC4=O)C5(C)C)CC[C@@H]23)[C@@]2(C)CC[C@@H](O)C[C@@H]12 [Example 61] | 403 | < 100
CC[C@H]1[C@@H](O)[C@@H]2[C@H](CC[C@]3(C)[C@@H]([C@H](C)CCNC(=O)NS(=O)(=O)c4ccc(-c5csc(C)n5)cc4)CC[C@@H]23)[C@@]2(C)CC[C@@H](O)C[C@@H]12 [Example 71] | 419 | 100 to 1000
CC[C@H]1[C@@H](O)[C@@H]2[C@H](CC[C@]3(C)[C@@H]([C@H](C)CCCNS(=O)(=O)C(C)C)CC[C@@H]23)[C@@]2(C)CC[C@@H](O)C[C@@H]12 [Example 11] | 267 | 1000 to 10000
CC[C@H]1[C@@H](O)[C@@H]2[C@H](CC[C@]3(C)[C@@H]([C@H](C)CCNC(=O)NS(=O)(=O)N4CC5CC5C4)CC[C@@H]23)[C@@]2(C)CC[C@@H](O)C[C@@H]12 (stereo partly drawn) [Example 68] | 458 | < 100
CC[C@H]1[C@@H](O)[C@@H]2[C@H](CC[C@]3(C)[C@@H]([C@H](C)CCNC(=O)NS(=O)(=O)N(C)C)CC[C@@H]23)[C@@]2(C)CC[C@@H](O)C[C@@H]12 [Example 91] | 399 | < 100
CC[C@H]1[C@@H](O)[C@@H]2[C@H](CC[C@]3(C)[C@@H]([C@H](C)CNC(=O)NS(=O)(=O)c4ccc(-c5ccccc5)s4)CC[C@@H]23)[C@@]2(C)CC[C@@H](O)C[C@@H]12 [Example 114] | 322 | < 100
CC[C@H]1[C@@H](O)[C@@H]2[C@H](CC[C@]3(C)[C@@H]([C@H](C)CCN(C)C(=O)NS(=O)(=O)c4ccc(C(C)(C)C)cc4)CC[C@@H]23)[C@@]2(C)CC[C@@H](O)C[C@@H]12 [Example 26] | 378 | 100 to 1000
CC[C@H]1[C@@H](O)[C@@H]2[C@H](CC[C@]3(C)[C@@H]([C@H](C)CCNC(=O)NS(=O)(=O)c4cccc(OC(F)(F)F)c4)CC[C@@H]23)[C@@]2(C)CC[C@@H](O)C[C@@H]12 [Example 50] | 309 | < 100
CC[C@H]1[C@@H](O)[C@@H]2[C@H](CC[C@]3(C)[C@@H]([C@H](C)CCNC(=O)NS(=O)(=O)N4C[C@H](C)C[C@H](C)C4)CC[C@@H]23)[C@@]2(C)CC[C@@H](O)C[C@@H]12 [Example 97] | 308 | < 100
CC[C@H]1[C@@H](O)[C@@H]2[C@H](CC[C@]3(C)[C@@H]([C@H](C)CCNC(=O)NS(=O)(=O)c4ccc5c(c4)CCCC5)CC[C@@H]23)[C@@]2(C)CC[C@@H](O)C[C@@H]12 [Example 57] | 297 | < 100
CC[C@H]1[C@@H](O)[C@@H]2[C@H](CC[C@]3(C)[C@@H]([C@H](C)CCNC(=O)NS(=O)(=O)C(C)(C)CO)CC[C@@H]23)[C@@]2(C)CC[C@@H](O)C[C@@H]12 [Example 122] | 121 | 1000 to 10000
CC[C@H]1[C@@H](O)[C@@H]2[C@H](CC[C@]3(C)[C@@H]([C@H](C)CCCNC(=O)NS(=O)(=O)c4ccc(C(C)(C)C)cc4)CC[C@@H]23)[C@@]2(C)CC[C@@H](O)C[C@@H]12 [Example 12] | 327 | < 100
CC[C@H]1[C@@H](O)[C@@H]2[C@H](CC[C@]3(C)[C@@H]([C@H](C)CCNC(=O)NS(=O)(=O)c4ccc(C(C)(C)C(=O)OC)cc4)CC[C@@H]23)[C@@]2(C)CC[C@@H](O)C[C@@H]12 [Example 70] | 434 | < 100
CC[C@H]1[C@@H](O)[C@@H]2[C@H](CC[C@]3(C)[C@@H]([C@H](C)CCNC(=O)NS(=O)(=O)N4CCS(=O)(=O)CC4)CC[C@@H]23)[C@@]2(C)CC[C@@H](O)C[C@@H]12 [Example 83] | 348 | 1000 to 10000
CC[C@H]1[C@@H](O)[C@@H]2[C@H](CC[C@]3(C)[C@@H]([C@H](C)CCNC(=O)NS(=O)(=O)N4CC(C)C(C)C4)CC[C@@H]23)[C@@]2(C)CC[C@@H](O)C[C@@H]12 (stereo partly drawn) [Example 99] | 266 | < 100
CC[C@H]1[C@@H](O)[C@@H]2[C@H](CC[C@]3(C)[C@@H]([C@H](C)CCCCNS(=O)(=O)c4ccccc4)CC[C@@H]23)[C@@]2(C)CC[C@@H](O)C[C@@H]12 [Example 137] | 105 | 1000 to 10000
CCCCS(=O)(=O)NC(=O)NCC[C@@H](C)[C@H]1CC[C@H]2[C@@H]3[C@H](O)[C@H](CC)[C@@H]4C[C@H](O)CC[C@]4(C)[C@H]3CC[C@]12C [Example 90] | 407 | < 100
CC[C@H]1[C@@H](O)[C@@H]2[C@H](CC[C@]3(C)[C@@H]([C@H](C)CCNC(=O)NS(=O)(=O)c4cccc(-c5nc(C)cs5)c4)CC[C@@H]23)[C@@]2(C)CC[C@@H](O)C[C@@H]12 [Example 80] | 295 | 100 to 1000
CC[C@H]1[C@@H](O)[C@@H]2[C@H](CC[C@]3(C)[C@@H]([C@H](C)CCNC(=O)NS(=O)(=O)c4ccc5c(c4)CCC5)CC[C@@H]23)[C@@]2(C)CC[C@@H](O)C[C@@H]12 [Example 55] | 271 | < 100
C[C@H](CCNC(=O)NS(=O)(=O)c1ccc(C(C)(C)C)cc1)[C@H]1CC[C@H]2[C@@H]3[C@H](O)C[C@@H]4C[C@H](O)CC[C@]4(C)[C@H]3CC[C@]12C [Example 110] | 320 | 1000 to 10000
CC[C@H]1[C@@H](O)[C@@H]2[C@H](CC[C@]3(C)[C@@H]([C@H](C)CCNC(=O)NS(=O)(=O)c4ccc(-c5ccccc5)s4)CC[C@@H]23)[C@@]2(C)CC[C@@H](O)C[C@@H]12 [Example 108] | 203 | 100 to 1000
CC[C@H]1[C@@H](O)[C@@H]2[C@H](CC[C@]3(C)[C@@H]([C@H](C)CCNC(=O)NS(=O)(=O)c4cc(F)cc(F)c4)CC[C@@H]23)[C@@]2(C)CC[C@@H](O)C[C@@H]12 [Example 102] | 210 | < 100
